Read-outs that look alike come from different tables or passages of the source.
Legend:
[1] = tested on: Plasmodium falciparum Dd2 asexual blood stage parasites; assay: microbe, parasite or virus in culture; set-up: species or system Plasmodium falciparum Dd2 in human erythrocytes; single determination (one 11-point concentration-response curve); details: Plasmodium falciparum, DD2, Erythrocyte, 72 h; read-out: AC50
[2] = tested on: P. berghei-ANKA-GFP-LucCON liver stage parasites in HepG2-A16-CD81EGFP cells; assay: P. berghei liver stage Pb-Luc assay, Method 1 (UCSD, 1536-well); assay type: cell-based, Plasmodium berghei; details: for activity at 1 µM / activity at 3 µM / AC50: Plasmodium berghei; for activity at 1 µM / activity at 3 µM: 48 h
[3] = tested on: luciferase-expressing P. berghei liver stage parasites in HepG2 cells; assay: Inhibition of liver-stage development assay (ILSDA), Method 2 (WRAIR, 96-well); assay type: cell-based, Plasmodium berghei; details: for Max Resp (signal direction of the dose response): Method 2, Decrease = decreasing P. berghei viability with dose, Increase = increasing signal, Inactive = no dose response; for AC50: Plasmodium berghei, HepG2, Method 2
[4] = tested on: HepG2-A16-CD81EGFP cells; details: average of 2 wells; for HepG2 viability signal, 3 uM, repeat 2: nominal 3 uM (10 mM stock), 4.5 uM for 15 mM, 3.6 uM for 12 mM, 6 uM for 20 mM stock
[5] = in vitro; details: human, HepG2-A16-CD81EGFP cells, uninfected
[6] = nominal 1 uM (10 mM stock), […] for 15 mM, 1.2 uM for 12 mM, 2 uM for 20 mM stock, average of 2 wells, 1536-well plate, repeat 1, read-out: Pb-Luc signal, 1 uM, repeat 1
[7] = nominal 1 uM (10 mM stock), […] for 15 mM, 1.2 uM for 12 mM, 2 uM for 20 mM stock, average of 2 wells, 1536-well plate, repeat 2, read-out: Pb-Luc signal, 1 uM, repeat 2
[8] = nominal 1 uM (10 mM stock), […] for 15 mM, 1.2 uM for 12 mM, 2 uM for 20 mM stock, average of 2 wells, 1536-well plate, repeat 3, read-out: Pb-Luc signal, 1 uM, repeat 3
[9] = nominal 3 uM (10 mM stock), 4.5 uM for 15 mM, 3.6 uM for 12 mM, 6 uM for 20 mM stock, average of 2 wells, 1536-well plate, repeat 1, read-out: Pb-Luc signal, 3 uM, repeat 1
[10] = nominal 3 uM (10 mM stock), 4.5 uM for 15 mM, 3.6 uM for 12 mM, 6 uM for 20 mM stock, average of 2 wells, 1536-well plate, repeat 2, read-out: Pb-Luc signal, 3 uM, repeat 2
[11] = nominal 3 uM (10 mM stock), 4.5 uM for 15 mM, 3.6 uM for 12 mM, 6 uM for 20 mM stock, average of 2 wells, 1536-well plate, repeat 3, read-out: Pb-Luc signal, 3 uM, repeat 3
[12] = nominal 1 uM (10 mM stock), […] for 15 mM, 1.2 uM for 12 mM, 2 uM for 20 mM stock
[13] = Hill fit, 50% of maximum activity response, read-out: AC50
[14] = log10 of molar AC50 from Hill fit, read-out: Log AC50 (converted)
[15] = 1 uM (compounds provided at 10 mM), average of 2 wells on a 1536 well plate, column 11, read-out: Pb-Luc (P. berghei liver stage), % of control, lower concentration, first repeat
[16] = 1 uM (compounds provided at 10 mM), average of 2 wells on a 1536 well plate, column 12, read-out: Pb-Luc (P. berghei liver stage), % of control, lower concentration, second repeat
[17] = 3 uM (compounds provided at 10 mM), average of 2 wells on a 1536 well plate, column 8, read-out: Pb-Luc (P. berghei liver stage), % of control, higher concentration, first repeat
[18] = 3 uM (compounds provided at 10 mM), average of 2 wells on a 1536 well plate, column 9, read-out: Pb-Luc (P. berghei liver stage), % of control, higher concentration, second repeat

Structure (SMILES) | AC50 [1] [µM] | Max Resp (signal direction of the dose response) [3] | AC50 [3, 13] [µM] | AC50 [3, 14] [µM] | viability at 48 h, 1 µM [5] [%] | viability at 48 h, 3 µM [5] [%] | activity at 1 µM [2, 15] [%] | activity at 1 µM [2, 16] [%] | activity at 3 µM [2, 17] [%] | activity at 3 µM [2, 18] [%] | further results
COc1ccc(-c2cc(C(F)(F)F)nc(SCCC(=O)Nc3cc(C)ccc3O)n2)cc1 [NCGC00101472-01] | 1.88 | Inactive | – | – | – | – | – | – | – | – | activity at 1 µM [2, 6]: 38.3%; activity at 1 µM [2, 7]: 70%; activity at 1 µM [2, 8]: 108%; activity at 3 µM [2, 9]: 2.83%; activity at 3 µM [2, 10]: 48.6%; activity at 3 µM [2, 11]: 51.1%; AC50 ([2]; Method 1, Hill fit, 50% of maximum activity response, read-out: AC50): 2 µM; AC50 ([2]; Method 1, log10 of molar AC50 from Hill fit, read-out: Log AC50 (converted)): 2 µM; HepG2 viability signal, 1 uM, repeat 1 ([4]; nominal 1 uM (10 mM stock), […] for 15 mM, 1.2 uM for 12 mM, 2 uM for 20 mM stock, repeat 1): 98.35%; HepG2 viability signal, 1 uM, repeat 2 [4, 12]: 103.33%; HepG2 viability signal, 3 uM, repeat 2 [4]: 103.42%
CC(C)(C)C1CCc2[nH]c3ccccc3c(=O)c2C1 (stereo not shown) [MLS000109039-01] | 1.88 | Decrease | 0.282 | 0.282 | 89 | 88 | – | – | – | – | –
O=C(NC1CC1)c1ccc(CSCc2ccccc2Cl)o1 [MLS001030935-01] | – | Decrease | 0.2 | 0.2 | 111 | 100 | 16 | 12 | 1 | 9 | –
N=c1c2c(n(Cc3ccccc3)c3c1CCC3)CCC2 [MLS000080128-01] | 4.22 | Inactive | – | – | 98 | 74 | – | – | – | – | –
CCc1ccc(C2Sc3ccccc3N=C3C2=C(O)c2ccccc23)cc1 (stereo not shown) [NCGC00108831-01] | – | Decrease | 0.398 | 0.398 | 103 | 105 | – | – | – | – | Max Resp (signal direction of the dose response) ([2]; Method 1, Decrease = decreasing P. berghei viability with dose, Increase = increasing signal, Inactive = no dose response): Decrease; activity at 1 µM [2, 6]: 12.1%; activity at 1 µM [2, 7]: 58.2%; activity at 1 µM [2, 8]: 12.7%; activity at 3 µM [2, 9]: 2.42%; activity at 3 µM [2, 10]: 50.9%; activity at 3 µM [2, 11]: 62.2%; HepG2 viability signal, 1 uM, repeat 2 [4, 12]: 104.01%; HepG2 viability signal, 3 uM, repeat 2 [4]: 104.74%
CCn1cc(C(=O)O)c(=O)c2cnc(N3CCN(/C(S)=N/c4ccccc4)CC3)nc21 [MLS000777921-01] | 3.76 | Decrease | 2 | 2 | 113 | 102 | 25 | 24 | 3.25 | 2.6 | –
Cc1ccc2c(c1)[nH]c1c(N3CCN(Cc4ccccc4)CC3)ncnc12 [MLS000041320-01] | – | Inactive | – | – | 82 | 88 | 23 | 17 | 5.3 | 4 | –
Cc1cc(Nc2ccc(Br)c(C)c2)n2nc(C)nc2n1 [MLS000116638-01] | 1.33 | Decrease | 0.794 | 0.794 | – | – | – | – | – | – | activity at 1 µM ([2]; P. berghei liver stage, 1 µM compound treatment (10 mM stocks), replicate 1, normalized, average of 2 wells on a 1536 well plate, read-out: PbLuc 1uM growth rep1): 32%; activity at 1 µM ([2]; P. berghei liver stage, 1 µM compound treatment (10 mM stocks), replicate 2, normalized, average of 2 wells on a 1536 well plate, read-out: PbLuc 1uM growth rep2): 25%; activity at 3 µM ([2]; P. berghei liver stage, 3 µM compound treatment (10 mM stocks), replicate 1, normalized, average of 2 wells on a 1536 well plate, read-out: PbLuc 3uM growth rep1): 9%; activity at 3 µM ([2]; P. berghei liver stage, 3 µM compound treatment (10 mM stocks), replicate 2, normalized, average of 2 wells on a 1536 well plate, read-out: PbLuc 3uM growth rep2): 12%; HepG2 1uM growth rep1 ([4]; HepG2, 1 µM compound treatment (10 mM stocks), replicate 1, normalized): 91%; HepG2 1uM growth rep2 ([4]; HepG2, 1 µM compound treatment (10 mM stocks), replicate 2, normalized): 87%; HepG2 3uM growth rep1 ([4]; HepG2, 3 µM compound treatment (10 mM stocks), replicate 1, normalized): 86%; HepG2 3uM growth rep2 ([4]; HepG2, 3 µM compound treatment (10 mM stocks), replicate 2, normalized): 89%
N=c1c2ccccc2nnn1-c1ccc(C(F)(F)F)cc1 [MLS000707013-01] | 3.76 | Decrease | 0.708 | 0.708 | 91 | 101 | 23 | 19 | 12 | 10 | –
Cc1ccc(Nc2nc(NCCO)c3ccccc3n2)cc1C [NCGC00273600-02] | – | Decrease | 0.562 | 0.562 | 96 | 82 | – | – | – | – | –
O=C(Nc1ccc(N2CCN(c3ncccc3C(F)(F)F)CC2)nc1)c1cccs1 [MLS000862045-01] | – | Decrease | 0.447 | 0.447 | 105 | 95 | – | – | – | – | –
CCCCN(CC)CCNC(=O)c1cc2c(-c3ccc(Cl)cc3)nn(C)c2s1 [NCGC00108995] | – | Inactive | – | – | – | – | – | – | – | – | viability at 66 h [5]: 102%
Cc1ccc(CSCc2ccc(C(=O)NC3CC3)o2)cc1 [MLS001031023-01] | 2.66 | Decrease | 0.224 | 0.224 | 93 | 88 | – | – | – | – | –

— article PMC7822874, “Chemoprotective antimalarials identified through quantitative high-throughput screening of Plasmodium blood and liver stage parasites” (Scientific Reports, 2021)
